Assay results published in PubChem BioAssay AID248 (DTP/NCI, 2004).
“And” between values parts separate entries of the source, which are not always exact repeats. Identical values can stand only once. Inconclusive results and toxic doses are left out. Peptide text beside a SMILES is read from it. * marks the point of attachment. Cbz = O=C(OCc1ccccc1)*; OtBu = CC(C)(C)O*

System: L1210 leukemia ip in BDF1 mice, survival T/C
Assay: NCI In Vivo Anticancer Drug Screen. Data for tumor model L1210 Leukemia (intraperitoneal) in B6D2F1 (BDF1) mice
Settings: endpoint: mean survival time, higher = longer survival
Summary of the method: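 In this screen, tumor-bearing mice given compound are compared to those given vehicle, and their survival values are reported as a treated-to-control quotient.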

[1] = dose: 100.0 mg/kg/injection, schedule: Q04DX003 (ip), vehicle: saline with Tween-80
[2] = dose: 200.0 mg/kg/injection, schedule: Q01DX009 (ip), vehicle: saline with Tween-80
[3] = dose: 100.0 mg/kg/injection, schedule: Q01DX009 (ip), vehicle: Klucel (hydroxypropylcellulose) (HPC)
[4] = dose: 200.0 mg/kg/injection, schedule: Q01DX009 (ip), vehicle: Klucel (hydroxypropylcellulose) (HPC)
[5] = dose: 400.0 mg/kg/injection, schedule: Q01DX009 (ip), vehicle: Klucel (hydroxypropylcellulose) (HPC)
[6] = dose: 100.0 mg/kg/injection, schedule: Q01DX009 (ip), vehicle: saline with Tween-80
[7] = dose: 200.0 mg/kg/injection, schedule: Q04DX003 (ip), vehicle: saline with Tween-80
[8] = dose: 400.0 mg/kg/injection, schedule: Q04DX003 (ip), vehicle: saline with Tween-80
[9] = dose: 50.0 mg/kg/injection, schedule: Q01DX009 (ip), vehicle: Klucel (hydroxypropylcellulose) (HPC)
[10] = dose: 100.0 mg/kg/injection, schedule: Q01DX001 (ip), vehicle: Klucel (hydroxypropylcellulose) (HPC)
[11] = dose: 200.0 mg/kg/injection, schedule: Q01DX001 (ip), vehicle: Klucel (hydroxypropylcellulose) (HPC)
[12] = dose: 400.0 mg/kg/injection, schedule: Q01DX001 (ip), vehicle: Klucel (hydroxypropylcellulose) (HPC)
[13] = dose: 100.0 mg/kg/injection, schedule: Q01DX001 (ip), vehicle: saline with Tween-80
[14] = dose: 100.0 mg/kg/injection, schedule: Q04DX002 (ip), vehicle: saline with Tween-80
[15] = dose: 200.0 mg/kg/injection, schedule: Q01DX001 (ip), vehicle: saline with Tween-80
[16] = dose: 200.0 mg/kg/injection, schedule: Q04DX002 (ip), vehicle: saline with Tween-80
[17] = dose: 400.0 mg/kg/injection, schedule: Q01DX001 (ip), vehicle: saline with Tween-80
[18] = dose: 400.0 mg/kg/injection, schedule: Q01DX009 (ip), vehicle: saline with Tween-80
[19] = dose: 400.0 mg/kg/injection, schedule: Q04DX002 (ip), vehicle: saline with Tween-80
[20] = dose: 100.0 mg/kg/injection, schedule: Q04DX003 (ip), vehicle: saline

Structure (SMILES): C=CCN(C)N=Nc1ccccc1C(N)=O
- T/C (dose: 88.0 mg/kg/injection, schedule: Q01DX009 (ip), vehicle: saline with Tween-80): 158 % of control
- T/C (dose: 88.0 mg/kg/injection, schedule: Q04DX003 (ip), vehicle: saline with Tween-80): 122 % of control
- T/C [1]: 116 % of control
- T/C (dose: 133.0 mg/kg/injection, schedule: Q01DX009 (ip), vehicle: saline with Tween-80): 150 % of control
- T/C (dose: 176.0 mg/kg/injection, schedule: Q01DX001 (ip), vehicle: saline with Tween-80): 109 % of control
- T/C [2]: 95 % of control

Structure (SMILES): CC(=O)/C=C/c1ccc(O)cc1
- T/C [3]: 98 % of control
- T/C [4]: 96 % of control
- T/C [5]: 100 % of control

Structure (SMILES): C/C(=N/N(C)C)c1ccccn1
- T/C [6]: 104 % of control
- T/C [1]: 91 % of control
- T/C [2]: 95 % of control
- T/C [7]: 95 % of control
- T/C [8]: 106 % of control

Structure (SMILES): CC1(C)OC2OC(COS(C)(=O)=O)C(O)C2O1 (stereo not given)
- T/C (dose: 12.5 mg/kg/injection, schedule: Q01DX009 (ip), vehicle: Klucel (hydroxypropylcellulose) (HPC)): 100 % of control
- T/C (dose: 25.0 mg/kg/injection, schedule: Q01DX009 (ip), vehicle: Klucel (hydroxypropylcellulose) (HPC)): 105 % of control
- T/C [9]: 105 % of control
- T/C (dose: 50.0 mg/kg/injection, schedule: Q04DX003 (ip), vehicle: Klucel (hydroxypropylcellulose) (HPC)): 92 % of control
- T/C [3]: 103 % of control
- T/C (dose: 100.0 mg/kg/injection, schedule: Q04DX003 (ip), vehicle: Klucel (hydroxypropylcellulose) (HPC)): 100 % of control
- T/C (dose: 200.0 mg/kg/injection, schedule: Q04DX003 (ip), vehicle: Klucel (hydroxypropylcellulose) (HPC)): 91 % of control
- T/C (dose: 400.0 mg/kg/injection, schedule: Q04DX003 (ip), vehicle: Klucel (hydroxypropylcellulose) (HPC)): 102 % of control

Structure (SMILES): NC(=O)CNc1ccccc1C(=O)O
- T/C [10]: 93 % of control
- T/C [11]: 96 % of control
- T/C [12]: 93 % of control

Structure (SMILES): Cc1ccc(C)c(NC(=O)Nc2nccs2)c1
- T/C [13]: 96 % of control
- T/C [6]: 96 % of control and 97 % of control
- T/C [14]: 96 % of control and 90 % of control
- T/C [1]: 95 % of control
- T/C [15]: 104 % of control
- T/C [2]: 92 % of control and 93 % of control
- T/C [16]: 93 % of control and 97 % of control
- T/C [7]: 86 % of control
- T/C [17]: 96 % of control
- T/C [18]: 94 % of control and 96 % of control
- T/C [19]: 100 % of control and 110 % of control
- T/C [8]: 88 % of control

Structure (SMILES): Cc1ccc(Nc2nc(N)nc(N)c2N)cc1Cl
- T/C (dose: 100.0 mg/kg/injection, schedule: Q01DX Z (ip), vehicle: saline): 104 % of control

Structure (SMILES): CCCCCCCCCCc1ccc(CCCCCCCCCC)cc1
- T/C [13]: 94 % of control
- T/C [15]: 92 % of control
- T/C [17]: 99 % of control

Structure (SMILES): CCC(=O)OC(CCN(C)C)(Cc1ccccc1)c1ccccc1 (stereo not given)
- T/C (dose: 25.0 mg/kg/injection, schedule: Q01DX009 (ip), vehicle: saline): 100 % of control
- T/C (dose: 50.0 mg/kg/injection, schedule: Q01DX009 (ip), vehicle: saline): 95 % of control
- T/C (dose: 100.0 mg/kg/injection, schedule: Q01DX009 (ip), vehicle: saline): 101 % of control
- T/C [20]: 93 % of control

Structure (SMILES): O=C(C1CC=CCC1)N1CCCCCC1 (stereo not given)
- T/C (dose: 100.0 mg/kg/injection, schedule: Q04DX002 (ip), vehicle: saline): 101 % of control
- T/C (dose: 200.0 mg/kg/injection, schedule: Q04DX002 (ip), vehicle: saline): 111 % of control
- T/C (dose: 400.0 mg/kg/injection, schedule: Q04DX002 (ip), vehicle: saline): 99 % of control

Structure (SMILES): CC(C)(C)C(/C=N/N=C(N)N)=N\N=C(N)N
- T/C (dose: 15.0 mg/kg/injection, schedule: Q01DX Z (ip), vehicle: methylcellulose (MC)): 105 % of control
- T/C (dose: 30.0 mg/kg/injection, schedule: Q01DX Z (ip), vehicle: methylcellulose (MC)): 91 % of control
- T/C (dose: 60.0 mg/kg/injection, schedule: Q01DX Z (ip), vehicle: methylcellulose (MC)): 94 % of control
- T/C (dose: 120.0 mg/kg/injection, schedule: Q01DX Z (ip), vehicle: methylcellulose (MC)): 91 % of control
- T/C (dose: 600.0 mg/kg/injection, schedule: Q01DX Z (oral), vehicle: methylcellulose (MC)): 110 % of control
- T/C (dose: 720.0 mg/kg/injection, schedule: Q01DX Z (oral), vehicle: methylcellulose (MC)): 98 % of control

Structure (SMILES): CCCNS(=O)(=O)c1ccc(C(=S)OCC)cc1
- T/C [10]: 98 % of control
- T/C [11]: 98 % of control
- T/C [12]: 94 % of control

Structure (SMILES): CC(=O)OCCC/C(=C\c1ccc2ccccc2c1)[N+](=O)[O-]
- T/C (dose: 100.0 mg/kg/injection, schedule: Q01DX001 (ip), vehicle: carboxymethylcellulose (CMC)): 98 % of control
- T/C (dose: 200.0 mg/kg/injection, schedule: Q01DX001 (ip), vehicle: carboxymethylcellulose (CMC)): 93 % of control
- T/C (dose: 400.0 mg/kg/injection, schedule: Q01DX001 (ip), vehicle: carboxymethylcellulose (CMC)): 89 % of control

Structure (SMILES): C(=N\Nc1nc2ccccc2s1)/c1cccnc1
- T/C [3]: 98 % of control
- T/C [4]: 98 % of control
- T/C [5]: 101 % of control

Structure (SMILES): CCC(C)CNC(C)=O (stereo not given)
- T/C [20]: 109 % of control
- T/C (dose: 200.0 mg/kg/injection, schedule: Q04DX003 (ip), vehicle: saline): 106 % of control
- T/C (dose: 400.0 mg/kg/injection, schedule: Q04DX003 (ip), vehicle: saline): 109 % of control

Structure (SMILES): O=c1[nH]c2cnn(-c3ccccc3)c2c(=O)n1O
- T/C (dose: 50.0 mg/kg/injection, schedule: Q01DX001 (ip), vehicle: saline): 97 % of control
- T/C (dose: 100.0 mg/kg/injection, schedule: Q01DX001 (ip), vehicle: saline): 97 % of control
- T/C (dose: 200.0 mg/kg/injection, schedule: Q01DX001 (ip), vehicle: saline): 97 % of control
- T/C (dose: 400.0 mg/kg/injection, schedule: Q01DX001 (ip), vehicle: saline): 105 % of control

Structure (SMILES): NCCCc1nc(N)nc(N)c1-c1ccc(Cl)cc1
- T/C (dose: 25.0 mg/kg/injection, schedule: Q04DX003 (ip), vehicle: saline): 104 % of control
- T/C (dose: 50.0 mg/kg/injection, schedule: Q04DX003 (ip), vehicle: saline): 110 % of control
- T/C [20]: 103 % of control

Structure (SMILES): O=C1C[C@@H](c2ccc(O)cc2)[C@@]2(O1)C(=O)O[C@H]([C@@H](O)CO)[C@@H]2O
- T/C (dose: 75.0 mg/kg/injection, schedule: Q01DX001 (ip), vehicle: saline): 98 % of control
- T/C (dose: 75.0 mg/kg/injection, schedule: Q01DX009 (ip), vehicle: saline): 96 % of control
- T/C (dose: 75.0 mg/kg/injection, schedule: Q04DX003 (ip), vehicle: saline): 95 % of control
- T/C (dose: 150.0 mg/kg/injection, schedule: Q01DX001 (ip), vehicle: saline): 96 % of control
- T/C (dose: 150.0 mg/kg/injection, schedule: Q01DX009 (ip), vehicle: saline): 93 % of control
- T/C (dose: 150.0 mg/kg/injection, schedule: Q04DX003 (ip), vehicle: saline): 98 % of control
- T/C (dose: 300.0 mg/kg/injection, schedule: Q01DX001 (ip), vehicle: saline): 97 % of control
- T/C (dose: 300.0 mg/kg/injection, schedule: Q01DX009 (ip), vehicle: saline): 100 % of control
- T/C (dose: 300.0 mg/kg/injection, schedule: Q04DX003 (ip), vehicle: saline): 94 % of control

Structure (SMILES): COC(=O)C(CCC(=O)OC(C)(C)C)NC(=O)C(NC(=O)OCc1ccccc1)C(C)C (stereo not drawn) (Cbz-Val-Glu(OtBu)-OMe; configuration not given here)
- T/C [6]: 98 % of control
- T/C [1]: 92 % of control
- T/C [2]: 89 % of control
- T/C [7]: 95 % of control
- T/C [18]: 98 % of control
- T/C [8]: 95 % of control

Structure (SMILES): N#Cc1c(=O)[nH]c2ccccc2[n+]1[O-]
- T/C [9]: 107 % of control
- T/C [3]: 104 % of control

Structure (SMILES): O=C(Nc1ccc([N+](=O)[O-])cc1Cl)Oc1ccc(Br)cc1Br
- T/C [1]: 100 % of control
- T/C [7]: 95 % of control
- T/C [8]: 100 % of control

Structure (SMILES): CCOC(=O)c1ccc(Nc2nnc(-c3ccc(OC)cc3OC)s2)cc1
- T/C [14]: 104 % of control
- T/C [16]: 104 % of control
- T/C [19]: 101 % of control

Structure (SMILES): CC1CC/C(=N\N(C)C)c2ccccc21 (stereo not given)
- T/C [6]: 120 % of control
- T/C [1]: 117 % of control
- T/C [7]: 103 % of control
- T/C [8]: 105 % of control
